Laboratory results: EP4775208A1, “USE OF PRMT5 INHIBITOR IN TREATMENT OF TUMORS OR CANCERS” (Apeiron Therapeutics (Hong Kong) Ltd., priority 2023, dated 2025)
Like-named read-outs stand apart in the source and are kept apart here.

Assays:
LN-18 = assay: Mini cell panel: inhibition of proliferation of LN-18 cells; format: cell-based
Text: (§1) Test 9: Mini Cell Panel: Assay for Inhibitory Activity of Compounds against Proliferation of 20 Tumor Cell Lines
(§2) Materials and Cells: Fifteen MTAP(-/-) cell lines and five MTAP wild-type cell lines were purchased from ATCC (USA). Cell culture media, fetal bovine serum (FBS), and penicillin-streptomycin were purchased from Thermo Fisher Scientific (USA). 384-well plates were purchased from PerkinElmer (USA). The CellTiter-Glo assay kit was purchased from Promega (USA). Paclitaxel was used as the control compound.

LN18 MTAP(-/-) cells = assay: Inhibition of proliferation of LN18 MTAP(-/-) cells (CellTiter-Glo); format: cell-based; settings: cell proliferation, 7 days
Protocol: Test 5: Assay for Inhibitory Activity of Compounds against LN18 MTAP(-/-) Cell Proliferation
(§3) Materials and Cells: The LN18 MTAP(-/-) cell line was provided by Cobioer Biosciences (China). Cell culture media, fetal bovine serum (FBS), and penicillin-streptomycin were purchased from Thermo Fisher Scientific (USA). 384-well plates were purchased from PerkinElmer (USA). The CellTiter-Glo assay kit was purchased from Promega (USA).
Cell Culture: LN18 MTAP(-/-) cells were cultured in a medium supplemented with 10% fetal bovine serum (FBS) and 1% penicillin-streptomycin at 37°C with 5% CO2. Only cells in the logarithmic growth phase were used for experiments.
(§4) Cell Proliferation Inhibition Assay: The antiproliferative activity of the compounds against LN18 MTAP(-/-) cells was assessed using the CellTiter-Glo assay kit. Cell suspensions were adjusted to the appropriate density and seeded into 384-well plates at a volume of 40 µL per well, then incubated overnight at 37°C with 5% CO2. Compounds (40 nL) were added to each well to achieve final concentrations ranging from 0 to 1,000 nM (starting concentration 1,000 nM, 3-fold serial dilutions, 9 dose points), with a final DMSO concentration of 0.25%. The cell plates were incubated at 37°C with 5% CO2 for 7 days. Subsequently, 40 µL of CellTiter-Glo reagent was added to measure cell viability.

BxPc-3 = assay: Mini cell panel: inhibition of proliferation of BxPc-3 cells; format: cell-based
Text: as §1, §2

[1] = system: HCT-116 MTAP wild-type cells; assay: Inhibition of proliferation of HCT-116 MTAP wild-type cells (Cell-Titer Glo); format: cell-based; settings: 8 days
How it was run: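 MTAP wild-type HCT-116 cells were seeded, cultured overnight and then exposed to compound from 10,000 nM down in a 10-point, 3-fold series (0.1% DMSO). Plates were incubated 8 days at 37°C, 5% CO2. Proliferation was read by Cell-Titer Glo viability luminescence.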

MKN-45 = assay: Mini cell panel: inhibition of proliferation of MKN-45 cells; format: cell-based
Text: as §1, §2

15 MTAP(-/-) cell lines = assay: Mini cell panel: summary over the MTAP(-/-) cell lines; format: cell-based; settings: for selectivity, calculated based on the median values: MTAP wild-type vs MTAP(-/-) cell lines
Text: as §1, §2

MDA-MB-231 = assay: Mini cell panel: inhibition of proliferation of MDA-MB-231 cells; format: cell-based
Text: as §1, §2

PSN-1 = assay: Mini cell panel: inhibition of proliferation of PSN-1 cells; format: cell-based
Text: as §1, §2

SU-DHL-10 = assay: Mini cell panel: inhibition of proliferation of SU-DHL-10 cells; format: cell-based
Text: as §1, §2

NCI-H647 = assay: Mini cell panel: inhibition of proliferation of NCI-H647 cells; format: cell-based
Text: as §1, §2

SW1573 = assay: Mini cell panel: inhibition of proliferation of SW1573 cells; format: cell-based
Text: as §1, §2

Calu-1 = assay: Mini cell panel: inhibition of proliferation of Calu-1 cells; format: cell-based
Text: as §1, §2

ACHN = assay: Mini cell panel: inhibition of proliferation of ACHN cells; format: cell-based; settings: MTAP (-/-)
Text: as §1, §2

LU99 MTAP(-/-) cells = assay: Inhibition of proliferation of LU99 MTAP(-/-) cells (CellTiter-Glo); format: cell-based; settings: cell proliferation, 6 days
Protocol: Test 3: Compound's inhibitory activity on proliferation of LU99 MTAP (-/-) cells.
as §3, with “LU99” for “LN18”, “purchased from” for “provided by”, “media and” for “media,”, “(FBS)” for “(FBS), and penicillin-streptomycin”
Cell Culture: LU99 MTAP(-/-) cells were cultured in a medium supplemented with 10% fetal bovine serum (FBS) at 37°C with 5% CO2. Only cells in the logarithmic growth phase were used for experiments.
as §4, with “against LU99” for “against LN18”, “nM, 2.5-fold” for “nM, 3-fold”, “dilutions, 10” for “dilutions, 9”, “of 0.2%.” for “of 0.25%.”, “for 6” for “for 7”

NCI-H838 MTAP(-/-) cells = assay: Inhibition of proliferation of NCI-H838 MTAP(-/-) cells (CellTiter-Glo); settings: read-out: IC50(nM) NCI-H838 MTAP(-/-)
[2] = Homo sapiens, LN-18, MTAP (-/-)
[3] = Homo sapiens, BXPC-3, MTAP (-/-)
[4] = Homo sapiens, MKN-45, MTAP (-/-)
[5] = read-out: median IC50, 15 MTAP(-/-) cell lines
[6] = Homo sapiens, MDA-MB-231, MTAP (-/-)
[7] = Homo sapiens, SU-DHL10, MTAP Wild type
[8] = Homo sapiens, NCI-H647, MTAP (-/-)
[9] = Homo sapiens, SW1573, MTAP (-/-)
[10] = Homo sapiens, Calu-1, MTAP Wild type

IC50 ([1]; Homo sapiens, HCT-116, 192 h) | IC50 (NCI-H838 MTAP(-/-) cells; Homo sapiens, NCI-H838, 144 h) | Molecule | IC50 (LN-18; [2]) | IC50 (LN18 MTAP(-/-) cells; Homo sapiens, LN-18, 168 h) | IC50 (BxPc-3; [3]) | IC50 (MKN-45; [4]) | selectivity, calculated based on the median values (15 MTAP(-/-) cell lines) | IC50 (15 MTAP(-/-) cell lines; [5]) | IC50 (MDA-MB-231; [6]) | IC50 (PSN-1; Homo sapiens, PSN1, MTAP (-/-)) | IC50 (SU-DHL-10; [7]) | IC50 (NCI-H647; [8]) | IC50 (SW1573; [9]) | IC50 (Calu-1; [10]) | IC50 (ACHN; Homo sapiens, ACHN) | IC50 (LU99 MTAP(-/-) cells; Homo sapiens, Lu-99, 144 h) | other results
1710 nM | – | CN(C(=O)c1cc2c(cn1)nc(N)c1cncn12)[C@@H]1COc2cc(C(F)(F)F)ccc21 [Example 4, (S)-4-amino-N-methy 1-N-(6-(trifluoromethy 1)-2,3-dihydrobenzofuran-3-yl)imidazo[1,5-a]pyrido[3,4-e]pyrazine-8-carboxamide] | 0.0078 µM | 7.85 nM | 0.0152 µM | 0.0178 µM | 44.2 fold | 0.0388 µM | 0.955 µM | 0.0126 µM | 1.3 µM | 0.016 µM | 0.662 µM | 3.37 µM | 0.0047 µM | – | IC50 (15 MTAP(-/-) cell lines; span over the cell lines, read-out: IC50 values (range) against the 15 MTAP(-/-) cell lines): ≥ 0.0024 µM
1080 nM | 66.8 nM | [2H]C([2H])([2H])N(C(=O)c1ccc2nc(N)c3cncn3c2c1)[C@@H]1COc2cc(C(F)(F)F)ccc21 [Example 16, (S)-4-amino-N-(methyl-d3)-N-(6-(trifluoromethyl)-2,3-dihydrobenzofuran-3-yl)imidaz o[1,5-a]quinoxaline-8-carboxamide] | – | 6.57 nM | – | – | – | – | – | – | – | – | – | – | – | 12.9 nM | –
1140 nM | 57.6 nM | [2H]C([2H])([2H])N(C(=O)c1cc2c(cc1F)nc(N)c1cncn12)[C@@H]1COc2cc(C(F)(F)F)ccc21 [Example 41, (S)-4-amino-7-fluoro-N-(methyl-d3)-N-(6-(trifluoromethyl)-2,3-di hydrobenzofuran-3-yl)imidazo[1,5-a]quinox aline-8-carboxamide] | – | 14.5 nM | – | – | – | – | – | – | – | – | – | – | – | 9.56 nM | –
– | – | (S)-4-amino-7-fluoro-N-methyl-N-(6-(triflu oromethyl)-2,3-dihydr obenzofuran-3-yl)imi dazo[1,5-a]quinoxalin e-8-carboxamide [Example 29] | – | – | – | – | 77.7 fold | 0.0424 µM | – | – | – | – | – | – | – | – | IC50 (LN-18; MTAP (-/-)): 0.0054 µM; IC50 (LN18 MTAP(-/-) cells): 5.42 nM; IC50 (LU99 MTAP(-/-) cells): 10.7 nM; IC50 (BxPc-3; MTAP (-/-)): 0.0572 µM; IC50 [1]: 935 nM; IC50 (MKN-45; MTAP (-/-)): 0.0398 µM; IC50 (MDA-MB-231; MTAP (-/-)): 0.39 µM; IC50 (PSN-1; MTAP (-/-)): 0.0241 µM; IC50 (SU-DHL-10; MTAP Wild type): 1.59 µM; IC50 (NCI-H647; MTAP (-/-)): 0.0416 µM; IC50 (SW1573; MTAP (-/-)): 0.0473 µM; IC50 (Calu-1; MTAP Wild type): 2.3 µM; IC50 (ACHN): 0.0029 µM; IC50 (NCI-H838 MTAP(-/-) cells; cell proliferation, 6 days, CellTiter-Glo): 76.8 nM

Molecule | IC50 ([1]; Homo sapiens, HCT-116, 192 h) | IC50 (NCI-H838 MTAP(-/-) cells; Homo sapiens, NCI-H838, 144 h) | IC50 (LN-18; [2]) | IC50 (LN18 MTAP(-/-) cells; Homo sapiens, LN-18, 168 h) | IC50 (BxPc-3; [3]) | IC50 (MKN-45; [4]) | selectivity, calculated based on the median values (15 MTAP(-/-) cell lines) | IC50 (15 MTAP(-/-) cell lines; [5]) | IC50 (MDA-MB-231; [6]) | IC50 (PSN-1; Homo sapiens, PSN1, MTAP (-/-)) | IC50 (SU-DHL-10; [7]) | IC50 (NCI-H647; [8]) | IC50 (SW1573; [9]) | IC50 (Calu-1; [10]) | IC50 (ACHN; Homo sapiens, ACHN) | IC50 (LU99 MTAP(-/-) cells; Homo sapiens, Lu-99, 144 h) | other results
CN(C(=O)c1ccc2nc(N)c3cncn3c2c1)[C@@H]1COc2cc(C(F)(F)F)ccc21 [Example 107, (S)-4-amino-N-methy 1-N-(6-(trifluoromethy 1)-2,3-dihydrobenzofuran-3-yl)imidazo[1,5-a]quinoxaline-8-carboxamide] | 1730 nM | 67.8 nM | 0.0094 µM | 11.1 nM | 0.0327 µM | 0.0431 µM | 58.8 fold | 0.0566 µM | 2.06 µM | 0.0309 µM | 1.7 µM | 0.03 µM | 0.0444 µM | > 10 µM | 0.0027 µM | 13.2 nM | –
